Measured values from the supplement of paper PMC10307832.

Columns and labels:
Vemurafenib + Dasatinib = compound: CCCS(=O)(=O)Nc1ccc(F)c(C(=O)c2c[nH]c3ncc(-c4ccc(Cl)cc4)cc23)c1F [Vemurafenib] + Cc1nc(Nc2ncc(C(=O)Nc3c(C)cccc3Cl)s2)cc(N2CCN(CCO)CC2)n1 [Dasatinib] (partner 0.075 µM); assay: relative viability (nuclei count vs DMSO), 5 days (fraction); higher = more cells survive
Summary of the method: (§1)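 Cells from lung cancer lines were seeded into 1536-well plates and, one day later, dosed by pin tool. Treatments were either a single drug or a fixed dose of an anchor drug with five library-drug doses (not always all listed) in √10 steps. After 5 days, nuclei were stained in a one-step fixation (final 0.05% Triton X-100, 1% formaldehyde, 1 ug/ml Hoechst) and counted on 4× images, and relative viability is the treated-to-vehicle nuclei ratio, as the median of duplicate plates.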

OSI-027 + Palbociclib = compound: COc1cccc2cc(-c3nc([C@H]4CC[C@H](C(=O)O)CC4)n4ncnc(N)c34)[nH]c12 [OSI-027] + CC(=O)c1c(C)c2cnc(Nc3ccc(N4CCNCC4)cn3)nc2n(C2CCCC2)c1=O [Palbociclib] (partner 0.5 µM); assay: as above
Summary of the method: as §1

| Cell Line | relative viability (Vemurafenib + Dasatinib; first compound 0.03162 µM) | relative viability (Vemurafenib + Dasatinib; first compound 0.3162 µM) | relative viability (Vemurafenib + Dasatinib; first compound 1 µM) | relative viability (OSI-027 + Palbociclib; first compound 0.01 µM) | relative viability (OSI-027 + Palbociclib; first compound 0.03162 µM) | relative viability (OSI-027 + Palbociclib; first compound 0.1 µM) | relative viability (OSI-027 + Palbociclib; first compound 0.3162 µM) | relative viability (OSI-027 + Palbociclib; first compound 1 µM) | relative viability (Vemurafenib + Dasatinib; first compound 0.1 µM) |
| --- | --- | --- | --- | --- | --- | --- | --- | --- | --- |
| NCI-H727 | 0.323 | 0.724 | 0.421 | 0.655 | 0.65 | 0.752 | 0.622 | 0.625 | – |
| NCI-H838 | 0.256 | – | 0.325 | 0.203 | 0.195 | 0.191 | 0.165 | 0.168 | 0.22 |
| NCI-H1355 | 0.671 | 0.466 | 0.745 | 0.4 | 0.392 | 0.317 | 0.264 | 0.257 | 0.703 |
| NCI-H1395 | 0.415 | – | 0.403 | 0.654 | 0.609 | 0.529 | 0.45 | 0.505 | 0.411 |
| NCI-H1437 | 0.338 | 0.296 | 0.325 | 0.286 | 0.324 | 0.309 | 0.357 | 0.22 | 0.336 |
| NCI-H1563 | 0.526 | 0.465 | 0.419 | – | – | – | – | – | 0.432 |
| NCI-H1623 | 0.565 | 0.716 | 0.485 | – | – | – | – | – | – |
| NCI-H1648 | – | – | – | 0.37 | 0.267 | – | 0.222 | 0.266 | – |
| NCI-H1650 | – | – | 0.305 | 0.361 | 0.344 | 0.278 | 0.357 | 0.286 | 0.301 |
| NCI-H1651 | 0.417 | 0.277 | 0.452 | 0.534 | 0.502 | 0.497 | 0.459 | 0.393 | 0.462 |
| NCI-H1666 | 0.741 | 0.644 | 0.709 | 0.691 | 0.675 | 0.65 | 0.577 | 0.671 | 0.837 |
| NCI-H1734 | 0.436 | 0.357 | 0.432 | 0.396 | 0.369 | 0.356 | 0.311 | 0.255 | 0.474 |
| NCI-H1755 | 0.396 | 0.243 | 0.43 | 0.483 | 0.444 | 0.421 | 0.445 | 0.336 | 0.406 |
| NCI-H1792 | 0.84 | – | 0.815 | 0.578 | 0.451 | 0.623 | 0.604 | 0.308 | 0.733 |
| NCI-H1793 | 0.415 | 0.237 | 0.307 | 0.3 | 0.3 | 0.236 | 0.187 | 0.181 | – |
| NCI-H1915 | 0.294 | 0.267 | 0.358 | 0.535 | 0.523 | 0.429 | 0.388 | 0.268 | 0.343 |
| NCI-H1944 | 0.198 | 0.192 | 0.199 | 0.336 | 0.3 | 0.327 | 0.234 | 0.205 | 0.189 |
| NCI-H1975 | 0.359 | 0.206 | 0.378 | 0.601 | 0.578 | 0.549 | 0.598 | 0.359 | 0.339 |
| NCI-H1993 | 0.298 | 0.694 | 0.621 | 0.613 | 0.491 | 0.414 | 0.432 | 0.381 | – |
| NCI-H2009 | 0.294 | 0.171 | 0.254 | 0.211 | 0.237 | 0.171 | 0.173 | 0.232 | 0.278 |
